Data reported in PMC6370756 (2019).

Experiments:
[1] = system: SP-PGQ-1 (DNA, G4) GGGCAACTTGGCTGGGGTCTAGTTCCACGGGACGGG; experiment: ITC; conditions: K+ (10 mM potassium phosphate); pH 7.2, 25 °C; two-site fit, high-affinity site; site 1 of 2
[2] = system: SP-PGQ-3 (DNA, G4) GGGCTAATAGGGAGAGCAGGGACGGGG; experiment: ITC; conditions: K+ (10 mM potassium phosphate); pH 7.2, 25 °C; two-site fit, high-affinity site; site 1 of 2

Ka [1]: 1.59e+06 M⁻¹
Ka [2]: 2.49e+07 M⁻¹
Structure (SMILES): C[n+]1ccc(-c2c3nc(c(-c4cc[n+](C)cc4)c4ccc([nH]4)c(-c4cc[n+](C)cc4)c4nc(c(-c5cc[n+](C)cc5)c5ccc2[nH]5)C=C4)C=C3)cc1
